Key:
serotonin reuptake sites = target: T1, serotonin reuptake sites (Rattus norvegicus, UniProt P31652); assay: Affinity for serotonin reuptake sites, competition with [3H]-paroxetine on rat frontal cortex membranes; type: binding; conditions: 0.25 nM [3H]-paroxetine, 2 hours, 25° C.
T1 construct: The membranes from the rat frontal cortex are prepared and incubated in triplicate; from tissue; host or cells: rat frontal cortex membranes
Method: The affinity of the compounds of the invention was determined by competition experiments with [^3H]-paroxetine. The membranes from the rat frontal cortex are prepared and incubated in triplicate for 2 hours, at 25° C., with 0.25 nM [^3H]-paroxetine and the cold ligand in a final volume of 0.4 ml. The incubation buffer contains 50 mM TRIS-HCl (pH 7.4), 120 mM NaCl and 5 mM KCl. The non-specific binding is determined using 10 μM citalopram. At the end of incubation, the medium is filtered through filters and washed three times with 5 ml of cooled buffer. The radioactivity retained on the filters is determined by liquid scintillation counting. The binding isotherms are analysed by non-linear regression in order to determine the IC50 values.

STZ Wistar rats = assay: Oral glucose tolerance test (OGTT), hypoglycaemic activity in STZ (streptozotocin) Wistar rats; type: in vivo, rat; conditions: 10 mg/kg per os 1 hour before OGTT (glucose 2 g/kg per os)
Method: The hypoglycaemic activity of the compounds of the invention was examined in three-month-old male Wistar rats weighing about 250 g. An experimental diabetes is obtained by the iv injection, under ketamine hydrochloride anaesthesia, of a low dose of streptozotocin (35 mg/kg iv) dissolved in a citrate buffer. Such rats are called STZ rats and are characterised by a slight basal hyperglycaemia, a marked intolerance to glucose and a clear change in the secretion of insulin.
Homeostasis was evaluated by a glucose tolerance test, carried out two weeks after injection with streptozotocin.
(§1) Oral Glucose Tolerance Test (OGTT)
(§2) Glucose is administered per os (2 g/kg) to conscious rats. Blood samples are collected before and 10, 20, 30, 40, 60, 90 and 120 minutes after the glucose administration.
(§3) The product to be tested is administered per os 1 hour before the OGTT, and the control animals receive solvent (gum arabic).

Zucker rats = assay: Oral glucose tolerance test (OGTT), hypoglycaemic activity in Zucker fatty fa/fa rats; type: in vivo, rat; conditions: 10 mg/kg per os 1 hour before OGTT (glucose 2 g/kg per os)
Method: Finally, the hypoglycaemic activity was evaluated in “Zucker” rats. “Zucker fatty” fa/fa rats arose following a spontaneous mutation of the 13M strain (Zucker & Zucker, 1961), and are genetically insulin-resistant and obese.
Their obesity can be observed from the age of four weeks, and is thus accompanied by insulin resistance, hyperinsulinaemia and hyperlipidaemia. […] Homeostasis was evaluated likewise by a glucose tolerance test.
as §1, §2, §3

obese ob/ob mouse = assay: Hypolipaemic activity in the obese ob/ob mouse; type: in vivo; conditions: oral route 30 mg/kg/day for 4 days, treated vs. untreated animals
Method: The products of the invention were tested in vivo in the obese ob/ob mouse, used as a model of obesity-associated insulin resistance. […] In this model, the compounds of the invention are thus shown also to be powerful hypolipaemics.

non-diabetic Wistar rats = assay: Oral glucose tolerance test (OGTT), hypoglycaemic activity in non-diabetic Wistar rats; type: in vivo, rat; conditions: 10 mg/kg per os 1 hour before OGTT (glucose 2 g/kg per os)

T1 sequence (P31652 whole entry): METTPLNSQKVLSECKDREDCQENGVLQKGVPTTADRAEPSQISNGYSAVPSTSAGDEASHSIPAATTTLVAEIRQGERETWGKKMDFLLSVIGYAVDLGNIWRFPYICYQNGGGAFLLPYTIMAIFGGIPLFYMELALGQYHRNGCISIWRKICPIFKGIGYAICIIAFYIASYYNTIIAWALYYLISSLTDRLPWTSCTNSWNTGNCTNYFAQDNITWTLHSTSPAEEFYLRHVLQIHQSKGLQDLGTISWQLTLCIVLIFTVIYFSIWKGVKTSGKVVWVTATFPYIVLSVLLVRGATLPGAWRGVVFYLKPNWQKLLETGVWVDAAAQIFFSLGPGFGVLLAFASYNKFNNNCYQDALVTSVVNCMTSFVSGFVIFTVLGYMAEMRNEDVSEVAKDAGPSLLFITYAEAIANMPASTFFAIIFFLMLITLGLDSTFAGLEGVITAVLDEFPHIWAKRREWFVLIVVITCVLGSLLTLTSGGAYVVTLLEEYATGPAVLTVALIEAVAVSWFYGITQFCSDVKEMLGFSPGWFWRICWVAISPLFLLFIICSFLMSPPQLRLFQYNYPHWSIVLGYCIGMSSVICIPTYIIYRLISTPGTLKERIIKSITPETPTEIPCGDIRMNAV

| SMILES | IC50 (serotonin reuptake sites) [µM] | reduces glycaemia (STZ Wistar rats) [%] | reduces glycaemia (Zucker rats) [%] | lowers the triglycerides (obese ob/ob mouse) [%] | reduces glycaemia (non-diabetic Wistar rats) [%] |
| --- | --- | --- | --- | --- | --- |
| c1ccc(C(C2=NCCN2)C2CCCCC2)cc1 (stereo not drawn) [2-[cyclohexyl(phenyl)methyl]-4,5-dihydro-1H-imidazole, reference compound] | 0.15 | – | – | – | – |
| c1cc(C(C2=NCCN2)C2CCCCC2)cs1 (stereo not drawn) [Example 3, 2-[Cyclohexyl(3-thienyl)methyl]-4,5-dihydro-1H-imidazole] | 2 | – | – | – | – |
| CC1CNC(C(c2ccsc2)C2CCCCC2)=N1 (stereo not drawn) [Example 6, 2-[Cyclohexyl(3-thienyl)methyl]-4-methyl-4,5dihydro-1H-imidazole] | – | 18 | 14 | 32 | 13 |
